{
  "source": "patent US20210290576A1",
  "about": "“STRUCTURALLY MODIFIED FATTY ACIDS FOR IMPROVING GLYCEMIC CONTROL AND TREATING INFLAMMATORY BOWEL DISEASE” (NORTHSEA THERAPEUTICS B.V., priority 2018, published 2021)",
  "key": {"[1]": {"test_system": "IL6, IL1b, S100A8, TNFα, Reg3g, IL17a mRNA", "experiment": "Colonic mRNA levels of proinflammatory cytokines and biomarkers in DSS-induced colitis mice (real-time PCR)", "format": "in vivo, C56BL/6J mouse", "details": "126 and 252 mg/kg per day; normalized to HPRT; vs untreated mice", "method": "(§1) The C56BL/6J mouse is a strain susceptible to DSS-induced colitis. To evaluate the efficacy and dosage of Compound B in treatment of DSS-induced colitis, inflammation was induced in 30 9-week old C56BL/6J mice by adding 1.5% DSS to the drinking water for 7 days. The mice were fed a standard chow diet that consisted of 30 weight percent wheat. The mice were divided into three groups of 10, and for each day of DSS administration each group was administered via oral gavage either (1) 100 μL corn oil per day (Control), (2) 126 mg/kg Compound B (dissolved in 100 μL corn oil) per day (“Compound B—Low” or “Compound B—L”), or (3) 252 mg/kg Compound B (dissolved in 100 μL corn oil) per day (“Compound B—High” or “Compound B—H”). Following the 7-day period of DSS induction, mice were sacrificed and their intestinal tissue was used for histopathological and gene expression analysis.\nTo evaluate the effect of treatment with Compound B on the levels of proinflammatory cytokines and biomarkers, total RNA was extracted from small and large intestinal tissue samples (>100 mg). cDNA was synthesized by reverse transcription and analyzed by real-time PCR. Results were normalized to the level of the housekeeping gene hypoxanthine guanine phosphoribosyltransferase (HPRT). The relative mRNA expression of the tested gene relative to HPRT expression was calculated using the 2^−ΔΔCt method as described in Pickert et al., J. Exp. Med., 2009, 206:1465-1472. Interleukin 6 (IL6), IL1b, calgranulin-A (S100A8), and tumor necrosis factor α (TNFα) have been implicated as mediators of IBD, including both ulcerative colitis and Crohn's disease. IL6, IL1b, and calgranulin-A are prominently expressed in inflammatory macrophages. IL22-dependent regenerating islet-derived 3 gamma (Reg3g) is induced in response to inflammation in epithelial cells. IL17 is secreted by Th17 T helper cells and innate lymphoid cells type 3 (ILC3)."}, "[2]": {"experiment": "Intestinal tissue distribution of radioactivity by quantitative whole-body autoradiography (QWBA)", "format": "in vivo, male albino rats", "details": "single oral 50 mg/kg [14C]-Compound B", "method": "Biological Example 7. Concentrations of Radioactivity in Intestinal Segments of Male Albino Rats after a Single Oral Administration of [14C]-Compound B at a Nominal Dose Level of 50 mg/kg Body Weight\nThis study was conducted to determine the intestinal tissue distribution of radioactivity in male albino rats following a single oral administration of [14C]-Compound B using quantitative whole-body autoradiography (QWBA). The tissue distribution in rats following a single oral dose of [14C]-Compound B at 50 mg/kg (Ca 5 MBq/kg) was studied by QWBA analysis up to 168 hours after dosing."}, "DSS-induced colitis mice": {"test_system": "DSS-induced colitis mice", "experiment": "DSS-induced colitis mouse model (body weight, colon length, survival, histology)", "format": "in vivo, C56BL/6J mouse", "details": "for colon length compared to control: 7 days DSS", "text": "Evaluation of Effects of Compound B on Intestinal Inflammation in DSS-Induced Colitis Mice\nThe dextran sodium sulphate-induced (DSS)-induced colitis model is well known in the art as a reproducible chemical induction of intestinal inflammation animal model. See, e.g., Eichele et al., World J Gastroenterol, 2017, 23(33):6016-6029; Randhawa et al., Korean J. Physiol. Pharmacol. (2014) 18:279-288; Jurjus et al., J. Pharmacol. Toxicol., Methods, 2004, 50:81-92; Gaudio et al., Dig. Dis. Sci., 1999, 44:1458-1475. The DSS-induced colitis model morphologically and symptomatically resembles epithelial damage seen in human IBD, and thus has become the most extensively employed experimental model of intestinal inflammation. Okayasu et al., Gastroenterology, 1990, 98:694-702; Kawada et al., World J. Gastroenterol. 2007, 13:5581-5593. The DSS-induced colitis model is most similar to ulcerative colitis in humans, but also has many similarities to Crohn's disease.\nDSS is a water soluble, negatively charged sulfated polysaccharide with a highly variable molecular weight ranging from 5 to 1400 kDa. Murine colitis results from administration of about 1% to 3% DSS to the drinking water of a mouse strain susceptible to DSS-induced colitis. Without being bound by theory, the sulfated polysaccharide may not directly induce intestinal inflammation, but may instead act as a direct chemical toxin to colonic epithelium resulting in epithelial cell injury. It is thought that DSS disrupts the intestinal epithelial monolayer lining, leading to the entry of luminal bacteria and associated antigens into the mucosa and allowing the dissemination of proinflammatory intestinal contents into underlying tissue. […] Perse et al., J. Biomed. Biotechnol., 2012:718617.\nas §1\nTo assess the efficacy of Compound B in the treatment of DSS-induced colitis in mice, the body weight of mice was monitored. Weight loss is an indicator of colitis severity.\nTo assess the efficacy of Compound B in the treatment of DSS-induced colitis in mice, colon length of test mice was measured. Colon length correlates inversely with inflammation.\n50% (n=5) of untreated mice in the control group were alive 7 days after colitis was induced, compared to 90% (n=9) of mice treated with the low dose of Compound B, and 100% (n=10) of mice treated with the high dose of compound B. Deaths in the control group were due to sepsis and severe colon inflammation. Thus, Compound B has a statistically significant effect on survival rate in colitis mice.\nHistopathological analysis was performed on sections of formalin-fixed paraffin embedded tissue after hematoxylin and eosin (H&E) staining. Colonic samples were analyzed by histopathology for assignment of scores for colitis activity as described in Neurath et al., J. Exp. Med., 2002, 195:1129-1143. Briefly, the degrees of inflammation and epithelial and mucosal injury on microscopic cross-sections of the colon were graded semi-quantitatively from 0 to 4. […]"}, "atherogenic lipids": {"test_system": "atherogenic lipids", "details": "APOE*3.CETP mice; cited from earlier work"}},
  "note": "Entries after “also recorded” stand apart in the source; their conditions may differ.",
  "data": [
    {"smiles": "CC/C=C\\C/C=C\\C/C=C\\C/C=C\\C/C=C\\CCCCSC(CC)(CC)C(=O)O", "note": "[Compound B, 2-ethyl-2-((5Z,8Z,11 Z,14Z,17Z)-icosa-5,8,11,14,17-pentaenylthio)butanoic acid]", "values": [
      {"measurement": "relative colonic mRNA level of IL1b", "setting": "[1]", "value": "reduced colonic expression; also recorded: dose-dependent decrease"},
      {"measurement": "relative colonic mRNA level of IL6", "setting": "[1]", "value": "reduced colonic expression; also recorded: dose-dependent decrease"},
      {"measurement": "relative colonic mRNA level of IL17a", "setting": "[1]", "value": "lack of change"},
      {"measurement": "relative colonic mRNA level of Reg3g", "setting": "[1]", "value": "reduced colonic expression; also recorded: dose-dependent decrease"},
      {"measurement": "relative colonic mRNA level of S100A8", "setting": "[1]", "value": "reduced colonic expression; also recorded: dose-dependent decrease"},
      {"measurement": "relative colonic mRNA level of TNFα", "setting": "[1]", "value": "reduced colonic expression; also recorded: dose-dependent decrease"},
      {"measurement": "accumulation in the caecum (time span)", "setting": "[2]", "value": "from 4 hours onwards to 1 day"},
      {"measurement": "accumulation in the large intestine (time)", "setting": "[2]", "value": 8, "unit": "h"},
      {"measurement": "time of peak concentrations in the small intestinal mucosa", "setting": "[2]", "value": 4, "unit": "h"},
      {"measurement": "difference in weight loss, control vs. treated", "setting": "DSS-induced colitis mice; 126 mg/kg per day (Compound B—Low)", "value": "statistically significant after 7 days"},
      {"measurement": "colon length compared to control", "setting": "DSS-induced colitis mice; 126 mg/kg per day (low dose)", "value": "significant increase in colon length"},
      {"measurement": "difference in weight loss, control vs. treated", "setting": "DSS-induced colitis mice; 252 mg/kg per day (Compound B—High)", "value": "statistically significant after 6 days"},
      {"measurement": "histological cross-sections of colon: morphology", "setting": "DSS-induced colitis mice; 252 mg/kg per day (high dose)", "value": "almost complete rescue"},
      {"measurement": "histological scores of colonic samples versus untreated mice", "setting": "DSS-induced colitis mice; 252 mg/kg per day (high dose)", "value": "significantly lower"},
      {"measurement": "inflammation and epithelial and mucosal injury versus untreated mice", "setting": "DSS-induced colitis mice; 252 mg/kg per day (high dose)", "value": "lower"},
      {"measurement": "colon length compared to control", "setting": "DSS-induced colitis mice; 252 mg/kg per day (high dose)", "value": "significant increase in colon length"},
      {"measurement": "histological cross-sections of colon: inflammatory infiltrates, edema, villus architecture", "setting": "DSS-induced colitis mice; 126 and 252 mg/kg per day", "value": "dose-dependent attenuation of inflammatory infiltrates and edema"},
      {"measurement": "weight loss compared to the control group", "setting": "DSS-induced colitis mice; 126 and 252 mg/kg per day oral gavage, 1.5% DSS for 7 days", "value": "dose-dependent reduction in weight loss"},
      {"measurement": "atherogenic lipids", "setting": "atherogenic lipids", "value": "significantly reduce atherogenic lipids"}
    ]}
  ]
}
